Results from US3954814A, “Alkadienylcyclopropanecarboxylates” (Sumitomo Chemical Company, Limited, priority 1971, dated 1976).
Converted amounts (≈) assume the structure as drawn.

Assays:
Format in all cases: in vivo
rice stem borer larvae = test: micro dropping (topical) test on hibernating rice stem borer larvae (Experimental Example 3); conditions: topical in acetone, head and tail of larvae, 3 days
Description: The present compounds (1), (4), (8), (10), (14), (15), (22), (32), (36), (38), (41), (44), (48), (50), (51), (52), (53), (61), (66), (68), (72), (73), (80), (81), (90) and (93) and chrysanthemic acid esters corresponding thereto were individually dissolved in acetone to prepare insecticides of various concentrations. Using a micro dropping means, each of the insecticides was dropped to the head and tail of hibernating rice stem borer larvae.

house flies = test: Campbell's turn table oil spray test on house fly adults (Experimental Example 1); conditions: Musca domestica, 24 h, oil spray 5 ml, 10 min exposure, mortality after 1 day, read-out: LC50 (50 percent lethal concentration)
Protocol: The present compounds (1), (4), (8), (10), (14), (15), (20), (22), (32), (36), (38), (41), (44), (48), (50), (51), (52), (53), (61), (66), (68), (72), (73), (78), (80), (81), (90), (93) and (96), and chrysanthemic acid esters and pyrethric acid esters corresponding thereto were individually formulated by use of deodorized kerosene into oil sprays of various test concentrations.
Using the Campbell's turn table [disclosed in "Soap & Sanitary Chemicals," Vol. 14, No. 6, page 119 (1938)], 5 ml. of each of the oil sprays was sprayed. When 20 seconds had elapsed after the spraying, the shutter was opened, and adults of house flies (a group of about 100 flies) were exposed to the settling mist for 10 minutes and then transferred to an observation cage.
The above operation was repeated several times to measure the LC50 (50 percent lethal concentration) of each compound.

[1] = test system: Northern house mosquitoes; test: knock-down test of oil sprays on Northern house mosquito adults in (70 cm)^3 glass chamber (Experimental Example 2)
Protocol: The present compounds (1), (6), (20), (22), (23), (25), (27), (29), (30), (31), (39), (42), (43), (45), (49), (53), (56), (62), (64), (78), (81), (83), (85), (87), (88) and (89), and chrysanthemic acid esters and pyrethric acid esters corresponding thereto were individually formulated by use of deodorized kerosene into oil sprays of various test concentrations.
About 20 adults of Northern house mosquitoes were liberated in a (70 cm)^3 glass chamber, and 0.7 ml. of each of the oil sprays was sprayed into the chamber under a pressure of 1.5 kg/cm^2 by use of a glass atomizer. Subsequently, the number of knocked-down mosquitoes was counted to calculate the KT50 (50 percent knock down time) of each compound.

[2] = concentration of oil spray 0.1%
[3] = concentration of oil spray 0.2%

| Structure (SMILES) | LD50 (50 percent lethal dose) (rice stem borer larvae) | LC50 (house flies) [µg/mL] | KT50 (50 percent knock down time) [1, 2] [s] | KT50 (50 percent knock down time) [1, 3] [s] |
| --- | --- | --- | --- | --- |
| CC(C)=CC1C(C(=O)OC(C#N)c2cccc(Oc3ccccc3)c2)C1(C)C (stereo not drawn) [3-Phenoxy-α-cyanobenzyl chrysanthemate, reference compound] | 0.01 γ/larva | 60 (≈ 160 µM) | 230 |  |
| CC(C)=CC1C(C(=O)OCc2coc(Cc3ccccc3)c2)C1(C)C (centres unmarked) [5-Benzyl-3-furylmethyl chrysanthemate, 5-benzyl-3-furylmethyl chrysanthemate, reference compound] | 0.20 γ/larva | 100 (≈ 295 µM) |  | 205 |
| C=CCC1=C(C)C(OC(=O)C2C(C=C(C)C)C2(C)C)CC1=O (centres unmarked) [Allethrin, reference compound] | 2.6 γ/larva | 1180 (≈ 3900 µM) | 292 | 197 |
| C=CC(C)=CC1C(C(=O)OCc2coc(Cc3ccccc3)c2)C1(C)C (centres unmarked) [Present compound (1), 5-Benzyl-3-furylmethyl 2',2'-dimethyl-3'-(2"-methyl-1", 3"-butadienyl)-cyclopropanecarboxylate] | 0.068 γ/larva | 53 (≈ 151 µM) |  | 131 |
| C=CC(C)=CC1C(C(=O)OCc2cc3c(o2)CCCC3)C1(C)C (centres unmarked) [Present compound (10), 4,5-Tetramethylenefurfuryl 2',2'-dimethyl-3'-(2"-methyl-1",3"-butadienyl)-cyclopropanecarboxylate] | 0.32 γ/larva | 120 (≈ 382 µM) |  |  |
| C=CC(C)=CC1C(C(=O)OCc2ccc(Oc3ccccc3)o2)C1(C)C (centres unmarked) [Present compound (14), 5-Phenoxyfurfuryl 2',2'-dimethyl-3'-(2"-methyl-1",3"-butadienyl)-cyclopropanecarboxylate] | 0.040 γ/larva | 47 (≈ 133 µM) |  |  |
| C=CC(C)=CC1C(C(=O)OCc2cccc(Oc3ccccc3)c2)C1(C)C (centres unmarked) [Present compound (15), 3-Phenoxybenzyl 2',2'-dimethyl-3'-(2"-methyl-1",3"-butadienyl)-cyclopropanecarboxylate] | 0.29 γ/larva | 68 (≈ 188 µM) |  |  |
| C=CC(C)=CC1C(C(=O)OC(C#N)c2cccc(Oc3ccccc3)c2)C1(C)C (stereo not drawn) [Present compound (22), 3-Phenoxy-α-cyanobenzyl 2',2'-dimethyl-3'-(2"-methyl-1",3"-butadienyl)-cyclopropanecarboxylate] | 0.006 γ/larva | 40 (≈ 103 µM) | 168 |  |
| C=CC(C)=CC1C(C(=O)OCC=C(Cl)Cc2ccccc2)C1(C)C (centres unmarked) [Present compound (32), 3-Chloro-4-phenyl-2-butene-1-yl 2',2'-dimethyl-3'-(2"-methyl-1",3"-butadienyl)-cyclopropanecarboxylate] | 0.52 γ/larva | 190 (≈ 551 µM) |  |  |
| C=CCc1cc(C)c(COC(=O)C2C(C=C(C)C=C)C2(C)C)c(C)c1 (centres unmarked) [Present compound (36), 2,6-Dimethyl-4-allylbenzyl 2',2'-dimethyl-3'-(2"-methyl-1",3"-butadienyl)-cyclopropanecarboxylate] | 0.28 γ/larva | 390 (≈ 1150 µM) |  |  |
| CC=CC(C)=CC1C(C(=O)OCc2coc(Cc3ccccc3)c2)C1(C)C (centres unmarked) [Present compound (38), 5-Benzyl-3-furylmethyl 2',2'-dimethyl-3'-(2"-methyl-1",3"-pentadienyl)-cyclopropanecarboxylate] | 0.102 γ/larva | 66 (≈ 181 µM) |  |  |
| CC=CC(C)=CC1C(C(=O)OCc2cccc(Oc3ccccc3)c2)C1(C)C (centres unmarked) [Present compound (41), 3-Phenoxybenzyl 2',2'-dimethyl-3'-(2"-methyl-1",3"-pentadienyl)-cyclopropanecarboxylate] | 0.48 γ/larva | 100 (≈ 266 µM) |  |  |
| CC(C)=CC(C)=CC1C(C(=O)OCc2coc(Cc3ccccc3)c2)C1(C)C (centres unmarked) [Present compound (44), 5-Benzyl-3-furylmethyl 2',2'-dimethyl-3'-(2",4"-dimethyl-1",3"-pentadienyl)-cyclopropanecarboxylate] | 0.145 γ/larva | 63 (≈ 166 µM) |  |  |
| CC(C)=CC(C)=CC1C(C(=O)OCc2cccc(Oc3ccccc3)c2)C1(C)C (centres unmarked) [Present compound (48), 3-Phenoxybenzyl 2',2'-dimethyl-3'-(2",4"-dimethyl-1",3"-pentadienyl)-cyclopropanecarboxylate] | 0.56 γ/larva | 140 (≈ 358 µM) |  |  |
| C=CC=CC1C(C(=O)OCc2coc(Cc3ccccc3)c2)C1(C)C (centres unmarked) [Present compound (50), 5-Benzyl-3-furylmethyl 2',2'-dimethyl-3'-(1",3"-butadienyl)-cyclopropanecarboxylate] | 0.057 γ/larva | 44 (≈ 131 µM) |  |  |
| CC=CC=CC1C(C(=O)OCc2coc(Cc3ccccc3)c2)C1(C)C (centres unmarked) [Present compound (51), 5-Benzyl-3-furylmethyl 2',2'-dimethyl-3'-(1",3"-pentadienyl)-cyclopropanecarboxylate] | 0.065 γ/larva | 56 (≈ 160 µM) |  |  |
| CC(C)=CC=CC1C(C(=O)OCc2coc(Cc3ccccc3)c2)C1(C)C (centres unmarked) [Present compound (52), 5-Benzyl-3-furylmethyl 2',2'-dimethyl-3'-(4"-methyl-1",3"-pentadienyl)-cyclopropanecarboxylate] | 0.100 γ/larva | 52 (≈ 143 µM) |  |  |
| C=CC=CC1C(C(=O)OCc2cccc(Cc3ccccc3)c2)C1(C)C (centres unmarked) [Present compound (61), 3-Benzylbenzyl 2',2'-dimethyl-3"-(1",3"-butadienyl)-cyclopropanecarboxylate] | 0.50 γ/larva | 90 (≈ 260 µM) |  |  |
| C#CCc1ccc(COC(=O)C2C(C=CC=C)C2(C)C)cc1 (centres unmarked) [Present compound (66), 4-Propargylbenzyl 2',2'-dimethyl-3'-(1",3"-butadienyl)-cyclopropanecarboxylate] | 0.31 γ/larva | 350 (≈ 1190 µM) |  |  |
| C=CC=CC1C(C(=O)OCc2cc3c(o2)CCCC3)C1(C)C (centres unmarked) [Present compound (68), 4,5-Tetramethylenefurfuryl 2',2'-dimethyl-3'-(1",3"-butadienyl)-cyclopropanecarboxylate] | 0.26 γ/larva | 110 (≈ 366 µM) |  |  |
| C=CC=CC1C(C(=O)OCc2ccc(Oc3ccccc3)o2)C1(C)C (centres unmarked) [Present compound (72), 5-Phenoxyfurfuryl 2',2'-dimethyl-3'-(1",3"-butadienyl)-cyclopropanecarboxylate] | 0.034 γ/larva | 41 (≈ 121 µM) |  |  |
| C=CC=CC1C(C(=O)OCc2cccc(Oc3ccccc3)c2)C1(C)C (centres unmarked) [Present compound (73), 3-Phenoxybenzyl 2',2'-dimethyl-3'-(1",3"-butadienyl)-cyclopropanecarboxylate] | 0.26 γ/larva | 60 (≈ 172 µM) |  |  |
| C=CC=CC1C(C(=O)OC(C#N)c2cccc(Oc3ccccc3)c2)C1(C)C (stereo not drawn) [Present compound (80), 3-Phenoxy-α-cyanobenzyl 2',2'-dimethyl-3'-(1",3"-butadienyl)-cyclopropanecarboxylate] | 0.005 γ/larva | 35 (≈ 93.7 µM) |  |  |
| C=CC=CC1C(C(=O)OCC=C(Cl)Cc2ccccc2)C1(C)C (centres unmarked) [Present compound (90), 3-Chloro-4-phenyl-2-butene-1-yl 2',2'-dimethyl-3'-(1",3"-butadienyl)-cyclopropanecarboxylate] | 0.43 γ/larva | 170 (≈ 514 µM) |  |  |
| C=CC=CC1C(C(=O)OCc2c(C)cc(CC=C)cc2C)C1(C)C (centres unmarked) [Present compound (93), 2,6-Dimethyl-4-allylbenzyl 2',2'-dimethyl-3'-(1",3"-butadienyl)-cyclopropanecarboxylate] | 0.21 γ/larva | 230 (≈ 709 µM) |  |  |
